The values below come from patent publication US4141986A, “Antibiotics 890A2 and 890A5” (Merck & Co., Inc., priority 1977, dated 1979).

The experiment relates to Vibrio percolans ATCC 8461. Briefly: Assay procedure for 890 Assay Units, disc-diffusion with cephaloridine standard. The experiment is classed as cell-based. Here is the method:
A conventional agar plate disc-diffusion method is employed using Vibrio percolans ATCC 8461 as tester organism. Cephaloridine is employed as a standard. Plates containing Vibrio percolans ATCC 8461 are prepared as follows. A culture of Vibrio percolans ATCC 8461 is incubated in nutrient broth-yeast extract overnight on a rotary shaker at 28° C. and then diluted to a density of 60% transmittance at 660 nm. A 33.2 ml. portion of this diluted culture is added to 1 liter of a medium composed of nutrient agar plus 0.2% yeast extract maintained at 46° C. The inoculated agar-containing medium is poured into 100 × 15 mm. plastic-petri dishes, 10 ml. per dish, chilled, and maintained at 2°-4° C. for up to 5 days before use.
The concentration of cephaloridine which is equivalent to 1 unit/ml. of 890A is deterined by assay on plates prepared as above, but containing 5 ml. of inoculated medium per plate, as follows. Four concentrations of cephaloridine constitute the standard -- 3.12, 6.25, 12.5 and 25 mcg per ml. with the 12.5 mcg per ml. as a reference solution. The zone diameters on a 5 ml. plate for the standard are as follows:
A unit is defined as the amount of antibiotic per ml. producing a 25 mm. zone of inhibition on a 5 ml. plate as described in section I above. Therefore, in this assay a concentration of 2.5 mcg per ml. of cephaloridine is considered equivalent to 1 unit of 890A per ml. Since the slope of the line for cephaloridine is 4.0 calculations of the potency of a sample are made using a slope of 4.0.
For orientation: Agar diffusion results depend on both activity and mobility in agar.

As to `O=C(Cc1cccs1)N[C@@H]1C(=O)N2C(C(=O)[O-])=C(C[n+]3ccccc3)CS[C@H]12` [cephaloridine, Cephaloridine], where the note is “25 mm. zone of inhibition on a 5 ml. plate”, the “concentration considered equivalent to 1 unit of 890A per ml.” value turned out to be 2.5 mcg per ml. Also, the zone of inhibition at 3.12 µg/mL (Comamonas terrigena, ATCC8461, 3.12 mcg./ml., 5 ml. plate, read-out: Zone Diameter) is 16.8 mm. In addition, the zone of inhibition at 6.25 µg/mL (Comamonas terrigena, ATCC8461, 6.25 mcg./ml., 5 ml. plate, read-out: Zone Diameter) was 22.3 mm. Moreover, the zone of inhibition at 12.5 µg/mL (Comamonas terrigena, ATCC8461, 12.5 mcg./ml., 5 ml. plate, read-out: Zone Diameter) was found to be 25 mm. Further, the zone of inhibition at 25 µg/mL (Comamonas terrigena, ATCC8461, 25 mcg./ml., 5 ml. plate, read-out: Zone Diameter) came out at 29.6 mm. For the same compound, the “slope of the line” value (zone diameter against concentration of the standard) was determined as 4.0.
